Data set [1] deals with T1, pfNDH2 (Plasmodium falciparum, UniProt Q8I302). Description: biochemical. In kind it is biochemical. To be noted: for inhibition of pfNDH2 activity (in words): purified recombinant pfNDH2, concentrations of up to 10 µM.
A further data set concerns the target T2, pfDHOD (Plasmodium falciparum, UniProt Q08210).
T2 sequence (Q08210 24-569): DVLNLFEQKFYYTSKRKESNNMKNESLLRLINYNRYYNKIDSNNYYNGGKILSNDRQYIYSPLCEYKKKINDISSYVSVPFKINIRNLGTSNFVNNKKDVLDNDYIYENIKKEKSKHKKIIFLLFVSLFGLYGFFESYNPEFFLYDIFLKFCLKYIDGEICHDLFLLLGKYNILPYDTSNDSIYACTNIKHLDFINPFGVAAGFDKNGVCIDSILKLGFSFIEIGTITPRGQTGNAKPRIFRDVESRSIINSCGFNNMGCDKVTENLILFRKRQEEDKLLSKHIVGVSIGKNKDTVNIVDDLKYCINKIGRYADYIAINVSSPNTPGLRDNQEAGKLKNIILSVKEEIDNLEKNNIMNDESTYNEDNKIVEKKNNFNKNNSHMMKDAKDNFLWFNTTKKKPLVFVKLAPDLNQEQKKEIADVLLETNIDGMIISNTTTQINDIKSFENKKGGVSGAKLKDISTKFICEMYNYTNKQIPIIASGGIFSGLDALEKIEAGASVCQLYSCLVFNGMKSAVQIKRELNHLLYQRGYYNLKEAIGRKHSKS
Description: biochemical.

Data set [2] concerns the target T1, pfNDH2. Put plainly: Kinetic properties of purified pfNDH2 with electron-accepting substrates. In kind it is biochemical. To be noted: in vitro, absence of membrane components.
Another data set relates to P. falciparum DD2-scDHOD. The data set is classed as cell-based, Plasmodium falciparum. To be noted: drug concentration of up to 10 µM.
For data set [3], the system named is O=C1C=CC(=Nc2cc(Cl)c(O)c(Cl)c2)C=C1. Put plainly: Kinetic properties of purified pfNDH2 with electron-accepting substrates. In kind it is biochemical, Plasmodium falciparum. To be noted: pH 8.0; 100.0 °C.

The IC50 is the concentration that gives 50% inhibition. Low values mean greater potency in that assay, high ones weaker potency in that assay. What is called Km is the substrate concentration at which the rate is half of its maximum. Usually kcat stands for the number of substrate molecules converted per active site and unit of time at saturation.

On to `C[C@@H]1CC[C@H]2[C@@H](C)C(=O)O[C@@H]3O[C@@]4(C)CC[C@@H]1[C@]32OO4` [Artemisinin], for which the IC50 against pfNDH2 [1] and against pfDHOD was greater than 10 µM in each case. Moreover, the “inhibition of pfNDH2 activity (in words)” value at pfNDH2 [1] is “did not perturb catalysis”.

On to `O=C1C(O)=C([C@H]2CC[C@H](c3ccc(Cl)cc3)CC2)C(=O)c2ccccc21` [Atovaquone], for which the IC50 against pfNDH2 [1] and against pfDHOD was greater than 10 µM in each case.

As for `COC1=C(OC)C(=O)C(C)=CC1=O` [CoQ0], the “utilization as electron acceptor substrate by pfNDH2 (in words)” value (shortened to “utilization”) at pfNDH2 [2] is given as “detectable catalysis”.

On to `COC1=C(OC)C(=O)C(CC=C(C)C)=C(C)C1=O` [CoQ1], for which the “utilization” value at pfNDH2 [2] is reported as “detectable catalysis”.

Take `COC1=C(OC)C(=O)C(C/C=C(\C)CC/C=C(\C)CC/C=C(\C)CCC=C(C)C)=C(C)C1=O` [CoQ4]: the “utilization” value on pfNDH2 [2] is listed as “not efficiently utilized”.

For the compound `CCCCCCCCCCC1=C(C)C(=O)C(OC)=C(OC)C1=O` [CoQD], the “utilization” value on pfNDH2 [2] was “not efficiently utilized”.

With `O=c1cc(-c2ccccc2)oc2ccccc12` [Flavone], the half-inhibitory concentration (IC50) at pfNDH2 [1] and at pfDHOD was greater than 10 µM in each case.

Take `CCCCCCCCCCCCc1cc(=O)c2ccccc2n1O` [HDQ, 1-hydroxy-2-dodecyl-4(1H)quinolone]: on pfNDH2 [1], the half-maximal inhibitory concentration (IC50) is greater than 10 µM and the “inhibition of pfNDH2 activity (in words)” value was “do not inhibit”. Moreover, the “proliferation of the scDHOD-expressing transgenic strain (in words)” value in the data set on P. falciparum DD2-scDHOD was “unaffected”.

With `[Cl-].c1ccc([I+]c2ccccc2)cc1` [IDP, diphenyliodonium chloride], on pfNDH2 [1], the IC50 is greater than 10 µM and the “inhibition of pfNDH2 activity (in words)” value was “do not inhibit”. Besides, the half-maximal inhibitory concentration (IC50) on pfDHOD is greater than 10 µM.

As for `C=C(C)[C@H]1Cc2c(ccc3c2O[C@@H]2COc4cc(OC)c(OC)cc4[C@@H]2C3=O)O1` [Rotenone], the IC50 against pfNDH2 [1] and against pfDHOD was greater than 10 µM each time.

As to pfNDH2 (Plasmodium falciparum 3D7), in data set [3], the Km was found to be 4.6 µM and the kcat worked out at 0.0317 s⁻¹.

Source of the values: PMC4422330 (Bioorganic & medicinal chemistry letters, 2008).
